{"source": "patent US7682351B2", "about": "“Method for infusing insulin to a subject to improve impaired hepatic glucose processing” (priority 2003, dated 2010)", "type_in_all_cases": "in vivo, human", "key": {"[1]": {"test_system": "type 2 diabetic male with autonomic neuropathy", "test": "Case report: elevated blood pressure with autonomic neuropathy treated with the subject method", "settings": "200/120 before treatment despite intensive insulin therapy; 5 years of use", "from_the_text": "(§1) The preferred embodiment of the method for delivering insulin pulses to a patient to improve impaired hepatic glucose processing is as follows. On the morning of the procedure, the patient is preferably seated in a blood drawing chair and a 23 gauge needle or catheter is preferably inserted into a hand or forearm vein to obtain vascular access. However, any system of such access may accomplish the needed result, including indwelling catheters, PICC lines and PORTACATHS. After a short equilibration period, the patient is asked to make a circulating glucose measurement prior to starting the actual infusion of insulin. A steady baseline circulating glucose level is achieved when two identical consecutive measurements taken 5 minutes apart is obtained. It is preferable that patients have circulating glucose levels close to 200 mg/dl prior to using the infusion method. In the case of pregnant diabetic women, however, every attempt is made to keep the maximum circulating glucose level to 150 mg/dl or less. […]\n(§2) For all of the above listed examples, after the initial few days of treatment, the patients underwent treatment once a week, each treatment day consisting of three infusions of insulin accompanied by ingestion of carbohydrates. […] The patients' circulating glucose was measured once every thirty minutes by the finger stick method currently used by most diabetic patients. […]"}, "[2]": {"test_system": "diabetic patients with heart disease", "test": "Case reports: diabetic heart disease patients treated with the subject method", "from_the_text": "(§3) The preferred embodiment of the method for delivering insulin pulses to a patient to improve impaired hepatic glucose processing is as follows. On the morning of the procedure, the patient is preferably seated in a blood drawing chair and a 23 gauge needle or catheter is preferably inserted into a hand or forearm vein to obtain vascular access. However, any system of such access may accomplish the needed result, including indwelling catheters, PICC lines and PORTACATHS. After a short equilibration period, the patient is asked to make a circulating glucose measurement prior to starting the actual infusion of insulin. A steady baseline circulating glucose level is achieved when two identical consecutive measurements taken 5 minutes apart is obtained. It is preferable that patients have circulating glucose levels close to 200 mg/dl prior to using the infusion method. In the case of pregnant diabetic women, however, every attempt is made to keep the maximum circulating glucose level to 150 mg/dl or less.\nAfter the circulating glucose measurement has been taken and the patient has the proper circulating glucose starting level, the patient is asked to consume a liquid or food containing glucose. The amount of glucose given to s diabetic patient ranges from 60 to 100 grams, but for small framed people the amount could be as low as 40 grams of glucose. However, the amount of initial glucose given to the patient may vary. Liquid or food containing glucose is consumed by the patient to prevent the patient from becoming hypoglycemic. The preferred liquid or food is GLUCOLA, but any similar type of liquid or high glycemic food, including but not limited to cake and bread, containing glucose may be given to the patient. […]\nas §2"}, "[3]": {"test_system": "patients suffering from senile dementia", "test": "Senile dementia in diabetic patients treated with the method (Hepatic Activation)", "from_the_text": "as §3\nAfter the circulating glucose measurement has been taken and the patient has the proper circulating glucose starting level, the patient is asked to consume a liquid or food containing glucose. The amount of glucose given to s diabetic patient ranges from 60 to 100 grams, but for small framed people the amount could be as low as 40 grams of glucose. […]"}, "[4]": {"test_system": "diabetic patients with retinopathy", "test": "Case reports: diabetic retinopathy patients treated with the subject method", "settings": "single patients with retinopathy; listed as subject method", "from_the_text": "as §1, §2"}, "[5]": {"test_system": "diabetic patients with leg ulcers", "test": "Case reports: diabetes related leg ulcers treated with the subject method", "settings": "ulcers not responding to any available therapy; listed as subject method", "from_the_text": "as §1, §2"}, "[6]": {"test_system": "type 1 DM patients with nephropathy", "test": "18-month multi-center controlled study of Chronic Intermittent Intravenous Insulin Therapy (CIIIT) on progression of diabetic nephropathy", "protocol": "A study was conducted to assess the effects of Chronic Intermittent Intravenous Insulin Therapy (CIIIT) on the progression of diabetic nephropathy in patients with type 1 diabetes mellitus (DM). This 18-month multi-center, prospective, controlled study involved 49 type 1 DM patients with nephropathy who were following the Diabetes Control and Complications Trial (DCCT) intensive therapy (IT) regimen. Of these, 26 patients formed the control group C, which continued on IT, while 23 patients formed the treatment group (T) and underwent, in addition to IT, weekly CIIIT.\nFor all of the above listed examples, after the initial few days of treatment, the patients underwent treatment once a week, each treatment day consisting of three infusions of insulin accompanied by ingestion of carbohydrates. The infusion device used to infuse the insulin was the BIONICA MD-110 pump. Typically there were ten pulses given over a period of one hour, and a rest period of one hour was taken between infusions of insulin. The form in which the carbohydrates were ingested changed from time to time and included eating foods of high glycemic index including but not limited to bread and cake. The patients' circulating glucose was measured once every thirty minutes by the finger stick method currently used by most diabetic patients. […]"}, "[7]": {"test_system": "diabetic patients with neuropathy", "test": "Case reports: diabetic neuropathy patients treated with the subject method", "from_the_text": "as §3\nAfter the circulating glucose measurement has been taken and the patient has the proper circulating glucose starting level, the patient is asked to consume a liquid or food containing glucose. The amount of glucose given to s diabetic patient ranges from 60 to 100 grams, but for small framed people the amount could be as low as 40 grams of glucose. However, the amount of initial glucose given to the patient may vary. Liquid or food containing glucose is consumed by the patient to prevent the patient from becoming hypoglycemic. The preferred liquid or food is GLUCOLA, but any similar type of liquid or high glycemic food, including but not limited to cake and bread, containing glucose may be given to the patient. In a non-diabetic patient more glucose may be required than in the diabetic patient, but the other parameters would remain the same, including the need for a pulsed delivery of insulin.\nPulses of insulin are then administered intravenously at planned intervals of time, usually every six minutes. However other intervals may be used from as low as every three minutes up to every 30 minutes. For diabetic patients the amount of insulin in each pulse is 10-200 milliunits of insulin per kilogram of body weight; for non-diabetic patients the amount of insulin in each pulse is slightly lower. […]\nas §2"}, "[8]": {"test_system": "type 2 diabetic patient with diabetes related kidney disease", "test": "Case report: diabetes related kidney disease (proteinuria) treated with the subject method", "settings": "1500 milligrams per 24-hour period before treatment, increasing 500 milligrams/24 hours/year; 5 years of use", "from_the_text": "as §1, §2"}, "[9]": {"settings": "type 1 person with severe neuropathy, Example 14"}}, "note": "Entries after “also recorded” stand apart in the source; their conditions may differ."}
{"substance": "insulin", "values": [{"measurement": "blood pressure after treatment", "setting": "[1]", "result": "120/80"}, {"measurement": "cardiac clinical outcome after treatment", "setting": "[2]; single patients with diabetes related heart disease, listed as subject method", "result": "no longer required a heart transplant; also recorded: could withstand 4-vessel by-pass surgery; also recorded: condition improved to the point where the doctors performed two instead of one grafts"}, {"measurement": "daily insulin intake after treatment", "setting": "[2]; type 2 patient with dilated cardiomyopathy, 150 units a day before treatment", "result": "24-26 units/day"}, {"measurement": "ejection fraction after treatment", "setting": "[2]; type 2 patient with severe dilated cardiomyopathy, 14-19% before treatment, 10 years of treatment", "result": "29-32%"}, {"measurement": "dementia symptoms after treatment", "setting": "[3]; listed as Hepatic Activation", "result": "significant improvement in their motor skills, memory, and cognitive function"}, {"measurement": "dementia symptoms after treatment", "setting": "[3]; listed as present invention", "result": "clearly shown improvement in confusion, weakness, disorientation, cognitive function and lack of memory"}, {"measurement": "eyesight / retinal outcome after treatment", "setting": "[4]", "result": "eyesight improved to the point where night driving was no longer a concern; also recorded: the bleeding stopped, and there was no further deterioration of the retina"}, {"measurement": "leg ulcer outcome after treatment", "setting": "[5]", "result": "ulcers on their second leg healed; also recorded: ulcers healed and have never returned"}, {"measurement": "effect on progression of diabetic nephropathy (conclusion)", "setting": "[6]; CIIIT added to IT in type 1 DM patients with overt nephropathy", "result": "markedly reduce the progression of diabetic nephropathy"}, {"measurement": "rate of creatinine clearance (CrCl) decline", "setting": "[6]; T group (n=23): DCCT intensive therapy (IT) plus weekly CIIIT, 18 months, control group C on IT alone 7.69±1.88 ml/min/yr, P=0.0343", "result": "2.21±1.62", "unit": "ml/min/yr"}, {"measurement": "neuropathic pain after treatment", "setting": "[7]; single patients with polyneuropathy / painful peripheral neuropathy, weekly treatment, listed as subject method", "result": "pain has been reduced to the point where the person enjoys rigorous exercise; also recorded: no longer takes pain medication and has no twinges of pain in their legs; also recorded: pain had subsided to the point where they no longer used a wheelchair"}, {"measurement": "gastroparesis after treatment", "setting": "[7]; [9]", "result": "gastroparesis was reversed"}, {"measurement": "numbness in legs after treatment", "setting": "[7]; [9]", "result": "numbness in their legs has gone away"}, {"measurement": "autonomic neuropathy symptoms after treatment (overall disease state)", "setting": "[7]; type 1 person, bed-ridden with autonomic neuropathy before treatment, two years of use", "result": "reversed all of the diseases to the point where they have taken themself off disability"}, {"measurement": "proteinuria after treatment", "setting": "[8]", "result": "600-800 milligrams/24 hours"}]}
